Assay results reported in patent US8207293B2, “Peptides derived from maurocalcine used as vectors for intracellular addressing of molecules of interest” (Commissariat a l'Energie Atomique, priority 2004, dated 2012).

Key:
[1] = test system: live cells; experiment: Flow cytometry analysis of cellular penetration at increasing extracellular KCl (membrane potential); assay type: cell-based; conditions: for mean fluorescence value: 100 nM complex, 1 hour
Protocol: The MCab-Strept-Cy^5 complexes were prepared in solutions containing various NaCl/KCl ratios (composition in mM: 145 to 5 NaCl, 5 to 145 KCl, 2.5 CaCl2, 1.2 MgCl2, 10 glucose, 10 HEPES, pH 7.4).
The cells were washed twice with the NaCl/KCl solution used to prepare the complexes, and then incubated with maurocalcine and the derived peptides, which are biotinylated and complexed with streptavidin-cyanin 3 (MCab-Strept-Cy^3 complexes), at the final concentration of 100 nM in the same NaCl/KCl solution, in the dark and at ambient temperature for 1 hour. After 2 washes in the same NaCl/KCl buffer, the cyanin 3 fluorescence was analyzed on live cells, using a flow cytometer (FACScalibur, BECTON DICKINSON). The data were recorded and analyzed using appropriate software (CellQuest, BD BIOSCIENCES). The live cells were sorted according to their size and their granulosity (forward/side scattering), over a total of 10 000 events.

[2] = test system: CA1 hippocampal neurons, HEK293 cells, L6 cells; experiment: Cell penetration of biotinylated peptide/Strept-Cy3 complexes in various cell cultures, confocal microscopy of fixed cells; assay type: cell-based; conditions: 100 nM, 30 min, ambient temperature
Protocol: (§1) Soluble streptavidin-cyanin 3 and streptavidin-cyanin 5 (Strept-Cy^3 and Strept-Cy^5, AMERSHAM) were mixed with 4 molar equivalents of biotinylated maurocalcine (1 mM) or biotinylated maurocalcine-derived peptide, in phosphate buffer (PBS, in mM: 136 NaCl, 1.47 Na2HPO4, 2.6 KCl, 1 CaCl2, 0.5 MgCl2, pH 7.2), for 2 hours at 37° C. and in the dark.
The cells were incubated with maurocalcine and the derived peptides, biotinylated and complexed with streptavidin-cyanin 3 or with streptavidin-cyanin 5, at the final concentration of 100 nM in PBS, in the dark and at ambient temperature, for 30 minutes to 1 hour. […] The Alexa-488 and Cy3 or propidium iodide (PI) fluorescences were excited sequentially and then recorded. The Cy3 fluorescence was excited using a 543 nm helium-neon laser beam and the fluorescence emission was recorded between 554 nm and 625 nm. […]
The primary rat hippocampal neurons and the cells of the HEK293 line and the L6 line (before and after differentiation) are incubated for 30 min at ambient temperature, with 100 nM or 333 nM of maurocalcine-derived peptide, biotinylated and complexed with streptavidin-Cy3, or else 100 nM or 333 nM of MCab/Strept-Cy3, as a control. The cells are fixed and the fluorescence is observed by confocal microscopy.

[3] = test system: HEK293 cells; experiment: Cell penetration and subcellular distribution of complexes in HEK293 cells, confocal microscopy; assay type: cell-based, human; conditions: for cellular distribution of complexes: 333 nM
Protocol: as §1
The human embryonic kidney cells (HEK 293 line, ATCC) are divided before confluence, by treatment with trypsin (1%), and are maintained in DMEM medium (INVITROGEN) containing 10% of inactivated fetal calf serum (INVITROGEN) and 1% of penicillin/streptomycin (INVITROGEN), in a CO2 incubator (5%). The culture medium is changed every 2 days.
The cells were incubated with maurocalcine and the derived peptides, biotinylated and complexed with streptavidin-cyanin 3 or with streptavidin-cyanin 5, […], in the dark and at ambient temperature, for 30 minutes to 1 hour. After 3 washes in PBS, the cells are fixed at ambient temperature, in a paraformaldehyde solution (4%), for 10 min, in the dark, washed in PBS and incubated for one hour with FITC-conjugated concanavalin (MOLECULAR PROBES, 5 μg/ml) in order to label the plasma membrane, and TO-PRO-3 iodide (MOLECULAR PROBES, 1 μM) in order to label the nucleus. In order to label the cytoskeleton, the cells were fixed and permeabilized with ice-cold methanol, for 10 min, washed twice in PBS and incubated with a mouse anti-alpha-tubulin antibody (1:1000, SIGMA), for 2 hours. After two washes in PBS, the cells were incubated for one hour with an anti-mouse IgG secondary antibody conjugated to Alexa 488 (1:1000, MOLECULAR PROBES). The cultures were then mounted in Vectashield mounting medium (VECTOR LABORATORIES). Preparations were observed by laser scanning confocal microscopy, using a Leica TCS-SP2 control system. The Alexa-488 and Cy3 or propidium iodide (PI) fluorescences were excited sequentially and then recorded. The Cy3 fluorescence was excited using a 543 nm helium-neon laser beam and the fluorescence emission was recorded between 554 nm and 625 nm. The images were introduced into Adobe Photoshop 7.0.

## MCab/Strept-Cy3: biotinylated maurocalcine, complexed with cyanin-3-labeled streptavidin
[1]; 5 mM KCl
  mean fluorescence value: 145
[1]; 125 mM KCl
  mean fluorescence value: 40
[1]; 145 mM KCl
  mean fluorescence value: 17
[1]; fit y=y0+a×x
  decreasing slope a (linear regression of fluorescence vs KCl concentration): −0.72
  maximum fluorescence y0 (linear regression vs KCl concentration): 139.5
[2]
  Cy3 labeling of cells (transduction): strong uniform labeling of the plasma membrane and of the cytoplasm of all the cells
[3]; 100 nM, 1 h, 4° C.
  entry into cells at decreased temperature: still penetrate into the cells
[3]; 100 nM, 1 h, amiloride 3 mM
  effect of amiloride on entry of the complex: no effect on the entry of the complex into the cells
[3]; 100 nM, 1 h, nystatin 50 μM
  effect of nystatin on entry of the complex: no effect on the entry of the complex into the cells
[3]; 2 hours of incubation
  cellular distribution of complexes: mainly present in the cytoplasm
[3]; between 4 hours and 24 hours of incubation
  cellular distribution of complexes: mainly perinuclear and colocalizes with the nucleus
